# Source: paper PMC7179274, “6′-β-Fluoro-Homoaristeromycin and 6′-Fluoro-Homoneplanocin A Are Potent Inhibitors of Chikungunya Virus Replication through Their Direct Effect on Viral Nonstructural Protein 1” (Antimicrobial Agents and Chemotherapy, 2020)
# Molecular target: T1, SFV nsP1 K231R+K300E (Semliki forest virus, UniProt P08411, K231R/K300E)
# T1 sequence (P08411 1-537 K231R/K300E): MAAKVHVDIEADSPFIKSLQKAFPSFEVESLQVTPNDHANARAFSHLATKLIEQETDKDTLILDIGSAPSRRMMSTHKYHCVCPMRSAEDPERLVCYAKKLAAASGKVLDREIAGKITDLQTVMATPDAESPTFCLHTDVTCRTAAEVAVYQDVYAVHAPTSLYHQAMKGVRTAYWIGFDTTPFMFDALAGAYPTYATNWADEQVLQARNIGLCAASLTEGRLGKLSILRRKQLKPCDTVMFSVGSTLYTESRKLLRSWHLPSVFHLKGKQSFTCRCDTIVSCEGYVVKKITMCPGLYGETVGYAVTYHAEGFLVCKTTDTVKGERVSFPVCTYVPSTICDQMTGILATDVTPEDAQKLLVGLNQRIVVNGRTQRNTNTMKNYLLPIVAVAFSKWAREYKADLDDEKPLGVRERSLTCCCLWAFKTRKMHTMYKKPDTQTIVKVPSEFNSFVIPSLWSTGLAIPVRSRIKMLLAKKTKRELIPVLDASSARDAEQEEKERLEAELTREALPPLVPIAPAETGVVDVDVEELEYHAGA
# Type: biochemical
smiles,measurement,setting,value
"Nc1ncnc2c1ncn2C1C(F)=C(CCO)C(O)C1O (stereo not shown) [FHNA, 6′-fluoro-homoneplanocin A]",Response of mutant vs wt SFV nsP1 to treatment,"50 μM to 1 mM, standard conditions",no difference between wt and mutant SFV nsP1 proteins
same,Further reduction in signal in the presence of NAD+,"1 mM compound + 1 mM NAD+, absence of DTT",about 6%
same,Reduction of the signal,"1 mM compound + 1 mM NAD+, nonreducing conditions",25%
same,Reduction in signal,"1 mM, nonreducing conditions (absence of DTT)",about 20%
